Consider 1 compound from PMC12362764, “Novel Cyano‐Artemisinin Dimer ZQJ29 Targets PARP1 to Induce Ferroptosis in Pancreatic Cancer Treatment” (Advanced Science, 2025).

One may read the IC50 as the concentration needed to halve the response being measured. A high value points to weaker potency in that assay. Usually AUC(0-t) stands for the area under the concentration-time curve up to a stated or last time point. A high value points to more exposure. For orientation: Cmax means the maximum level reached in the sampled fluid or tissue. The term half-life denotes the time needed for the level to fall by half in the phase considered. High values mean slow loss, low ones fast loss. By Kd is commonly meant a measure of binding affinity in units of concentration. A higher Kd goes with weaker binding.

Each structure is given as a SMILES string. A value given as a limit tells only on which side of the number the result lay.

For one series, the system named is H1975. Briefly: CCK-8 cytotoxicity assay, H1975. The following applies: Homo sapiens, NCI-H1975, 72 h. In kind it is cell-based. The protocol: (§1) Cell viability was evaluated using the Cell Counting Kit‐8 (Beyotime, Shanghai, China) assay. Cells were seeded in 96‐well plates at a density of 2×10^3 cells to allow for attachment. After treatment with ZQJ29 (0.001, 0.01, 0.1, 10, and 25 µM) for 24, 48, and 72 h, 10 µL of CCK‐8 solution was added to each well and incubated for 1 h. The optical density values were then measured at 450 nm using a multifunctional enzyme‐linked immunosorbent assay reader (Tecan, Spark, Switzerland).
(Tetrazolium dyes change colour on reduction, which living cells bring about.)

Another series relates to MCF. The experiment in a line: CCK-8 cytotoxicity assay, MCF. Format: cell-based. The following applies: 72 h. The protocol: as §1
The test system of another series is LX2. Briefly: CCK-8 cytotoxicity assay, LX2 (normal cell line). Format: cell-based. Particulars: Homo sapiens, LX-2, 72 h. The protocol: as §1
A further series deals with THLE-2. Briefly: CCK-8 cytotoxicity assay, THLE-2 (normal cell line). In kind it is cell-based. The following applies: Homo sapiens, 72 h. The procedure: as §1
Series [1] is described as follows: Pharmacokinetic study after intragastric administration. Particulars: rat, 50 mg/kg i.g. Format: in vivo, Sprague-Dawley (SD) rats. The procedure:
Male Sprague‐Dawley (SD) rats (200 ± 20 g) were purchased from Beijing Vital River Laboratory Animal Technology Co., Ltd. (Beijing, China). After a one‐week acclimatization period, the rats were injected intragastrically with ZQJ29 (50 mg kg^−1). Blood samples were collected from the jugular veins after the injection of ZQJ29 (at 5, 10, 20, 40, 60, 120, 240, 360, 720, and 1440 min). The whole blood was centrifuged at 4000 × g for 10 min at 4 °C. Plasma was extracted with MeOH by vortexing for 10 min. After centrifugation for 12 min at 12 000 × g at 4 °C, the supernatant was analyzed using an HPLC‐MS/MS system. The concentration of ZQJ29 was quantitatively measured by the external standard method. Pharmacokinetic parameters were calculated using Drug and Statistic (DAS, version 2.0) software based on the compartmental method.

A further series relates to PANC-1 cells. The experiment in a line: Cell cycle analysis (PI, flow cytometry), PANC-1. In kind it is cell-based. Particulars: PANC-1, 24 h. The procedure:
PANC‐1 and KP4 cells were placed in 6 cm dishes and exposed to designated concentrations of ZQJ29 (1 µM) for 24 h before trypsinization. After centrifugation, the cells were secured and preserved in ice‐cold 70% ethanol and stored at 4 °C for 24 h. They were then thoroughly washed with PBS multiple times. Next, the fixed cells were incubated in PBS supplemented with RNase and PI solution for 30 min at 37 °C, protected from light exposure. Cell cycle progression was assessed using a flow cytometer. This experimental procedure was systematically conducted in three separate trials, with each trial done in triplicate. Cell cycle kits were obtained from Beyotime (Shanghai, China).
(In flow cytometry, cells or beads pass a laser one at a time.)

For a further series, the system named is PANC-1 and KP4 cells. The experiment in a line: Ferroptosis markers (lipid ROS, iron, MDA, GSH). In kind it is cell-based. Particulars: 0, 1, 2.5, 5 µM, 24 h of ZQJ29 treatment.
For series [2], the system named is PARP1, TP53, SLC7A11, and GPX4. The experiment in a line: Western blot of PARP1, TP53, SLC7A11 and GPX4 in cells. In kind it is cell-based. Particulars: PANC-1 and KP4 cell lines, dose-dependent. The protocol:
For western blotting analysis, ZQJ29‐treated cells were lysed with RIPA Lysis Buffer (Yeasen, Shanghai, China) containing protease and phosphatase inhibitors (Yeasen, Shanghai, China) on ice. The cell lysates were quantified using the BCA Protein Assay Kit (Beyotime, Shanghai, China). Samples were subjected to SDS‐PAGE and transferred to PVDF membranes (Beyotime, Shanghai, China). The membranes were blocked with 5% nonfat milk in TBST (Buffered Saline with 0.1% Tween 20) for 1 h, followed by overnight incubation at 4 °C with primary antibodies. After washing the membranes three times with TBST, they were incubated with the appropriate secondary antibodies for 2 h at room temperature. Following another three times with TBST, the bands on the membranes were detected using the ECL‐Plus Western Blotting Detection System (Yeasen, Shanghai, China).

Series [3] concerns the target T1, PARP1 (Homo sapiens, UniProt P09874). The experiment in a line: SPR analysis (Biacore S200). Format: binding. Also noted: purchased Sino Biological 11040‐H08B. The following applies: 25 °C, Steady State Affinity model. The protocol: The interaction between ZQJ29 and PARP1 was assessed by SPR with the Biacore S200 system at 25 °C (Cytiva). Recombinant human PARP1 protein (Sino Biological, 11040‐H08B) was immobilized on an activated carboxymethylated 5 (CM5) sensor chip using the amine coupling method. Gradient concentrations of 3 were injected at a flow rate of 40 µL min^−1 in a running buffer [5% (v/v) DMSO in PBS·P]. The results were analyzed with the Biacore evaluation software (S200 version). Data were fitted to the Steady State Affinity model, and kinetic parameters were derived.
For orientation: SPR reads the build-up and loss of mass on a sensor chip optically.

The target in series [4] is T1, PARP1. The experiment in a line: CETSA. In kind it is binding. Further details: Total cellular proteins from PANC‐1 and KP4 were extracted using M‐PER lysis buffer; endogenous in cells; host or cells: PANC-1 and KP4 pancreatic cancer cells. The protocol: PANC‐1 and KP4 cells were treated with M‐PER lysis buffer to lyse the cells. The resulting protein extracts were divided into two parts. One part was treated with 50 µM ZQJ29, while the other received an equal amount of DMSO. Both mixtures were incubated on ice for 1 h. The samples were then divided into 100 µL PCR tubes and exposed to a range of temperatures starting at 45 °C. After cooling and centrifugation, 5 × SDS loading buffers were added to the supernatant. The samples were then heated to 95 °C for 10 min and analyzed SDS‐PAGE followed by Western blotting.

[5] abbreviates: male, Sprague-Dawley, plasma, po, n = 6.

T1 sequence (P09874 whole entry): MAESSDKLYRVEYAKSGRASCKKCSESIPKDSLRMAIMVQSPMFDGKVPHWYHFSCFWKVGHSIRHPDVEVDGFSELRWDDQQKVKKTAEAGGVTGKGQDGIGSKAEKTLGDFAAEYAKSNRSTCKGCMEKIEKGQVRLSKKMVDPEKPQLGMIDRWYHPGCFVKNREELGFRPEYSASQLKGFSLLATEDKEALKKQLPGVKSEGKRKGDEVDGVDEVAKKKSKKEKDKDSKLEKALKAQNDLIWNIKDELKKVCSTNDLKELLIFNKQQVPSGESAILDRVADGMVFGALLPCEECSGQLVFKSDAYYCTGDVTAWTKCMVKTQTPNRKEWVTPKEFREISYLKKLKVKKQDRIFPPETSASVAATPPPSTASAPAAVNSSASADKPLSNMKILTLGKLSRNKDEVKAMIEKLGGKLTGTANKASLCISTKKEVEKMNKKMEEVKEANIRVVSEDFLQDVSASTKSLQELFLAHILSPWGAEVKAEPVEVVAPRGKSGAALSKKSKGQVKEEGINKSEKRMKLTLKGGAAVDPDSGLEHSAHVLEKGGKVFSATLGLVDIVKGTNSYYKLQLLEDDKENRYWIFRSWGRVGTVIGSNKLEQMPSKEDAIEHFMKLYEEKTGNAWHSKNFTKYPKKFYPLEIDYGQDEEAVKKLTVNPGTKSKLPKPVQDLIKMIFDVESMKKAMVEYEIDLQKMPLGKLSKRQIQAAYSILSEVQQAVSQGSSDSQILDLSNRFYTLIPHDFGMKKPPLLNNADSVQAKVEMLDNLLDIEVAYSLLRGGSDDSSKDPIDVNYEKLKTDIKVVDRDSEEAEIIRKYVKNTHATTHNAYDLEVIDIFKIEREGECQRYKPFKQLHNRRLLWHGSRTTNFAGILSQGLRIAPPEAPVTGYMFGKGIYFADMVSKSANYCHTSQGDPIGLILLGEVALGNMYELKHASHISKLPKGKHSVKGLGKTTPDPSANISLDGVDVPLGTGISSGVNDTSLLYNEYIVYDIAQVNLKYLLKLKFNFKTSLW

Consider `CC1CCC2C(C)C(OCCN(C#N)CCOC3OC4OC5(C)CCC6C(C)CCC(C3C)C46OO5)OC3OC4(C)CCC1C32OO4` (centres unmarked) [ZQJ29], for which the IC50 in the series on H1975 was 2190 ± 113 nM; with MCF it was 759 ± 311 nM; in the series on LX2, > 10 µM; with THLE-2, > 10 µM. In series [1] (setting [5]), this compound yielded an AUC(0-t) of 40 ± 16.3 ng·h/mL. This compound came in with a Cmax in [1] (setting [5]) of 11.8 ± 6.05 ng/mL. Besides, the MRT last in series [1] (male, Sprague-Dawley, plasma, po, n = 6, read-out: MRT0-t) was determined as 2.74 ± 0.46 h. The MRT inf in series [1] (male, Sprague-Dawley, plasma, po, read-out: average residence time (MRT0-inf)) worked out at 2.74 h. This compound showed a half-life in series [1] (male, Sprague-Dawley, plasma, po, 50 mg/kg, n = 6) of 94.8 ± 15.6 min. Besides, in series [1] (n = 6, 50 mg/kg), the t1/2 turned out to be 1.6 h. Besides, the cell cycle arrest result in the series on PANC-1 cells was “remarkable G2/M phase arrest”. Further, the “intracellular ROS, iron, MDA and GSH levels” value in the series with PANC-1 and KP4 cells is “increased ROS release, iron accumulation, MDA production, and GSH depletion”. The “expression of PARP1, SLC7A11 and GPX4” value in series [2] is listed as “downregulated”. In addition, the “expression of TP53” value in series [2] is reported as “upregulated”. At PARP1 [3], this compound had a Kd of 2860 nM. At PARP1 [4] (PANC-1 and KP4 lysates, 50 µM ZQJ29, 45 to 70 °C), the “PARP1 accumulation (thermal stability)” value was “significantly increased”. The “PARP1 stability at 60 °C” value on PARP1 [4] (cell lysates, increasing ZQJ29 concentrations) is given as “enhanced”.
